Experimental data: patent US20250066807A1, “CYP72A219 GENES CONFERRING HERBICIDE TOLERANCE” (COLORADO STATE UNIVERSITY RESEARCH FOUNDATION, priority 2021, published 2025)
Entries after “also recorded” stand apart in the source; their conditions may differ.

Legend:
[1] = tested on: second CYP72A219 gene from chromosome 4 (SEQ ID NO: 5); assay: tembotrione metabolism in yeast expressing CYP72A219 (b); format: in vitro ADME, Amaranthus palmeri; details: SEQ ID NO: 5 vector; 150 μL of 1000 μM tembotrione, 24 h, 30 C; FIG. 3D-E
Description: (§1) A functional validation of the candidate genes was conducted in a yeast system. In brief, the yeast lines WAT11 and WAT21 express the plant cytochrome P450 reductase genes ATR1 and ATR2, respectively, and have the endogenous yeast cytochrome P450 reductase gene knocked out. The sequences of the three CYP72A219 genes and the CYP81E gene were codon-optimized for expression in yeast and synthesized by Genewiz in vector pUC57. The genes were cloned into yeast expression vector pYES2 with a galactose inducible promoter, a uracil synthesis gene, and an ampicillin resistance gene. The vectors were first transformed into E. coli and selected on ampicillin, followed by sequencing to confirm the correct insertion of the P450 gene sequence. Plasmid was extracted from transformed colonies for transformation into yeast lines WAT11 and WAT21 using a LiAc protocol and plated on glucose-containing media lacking uracil to select for transformed cells. The empty pYES2 vector was included as a negative control, and a vector containing the Nsf1 gene from corn was included as a positive control known to metabolize the HPPD-inhibiting herbicides mesotrione and tembotrione. […] The incubation solution was then centrifuged, and the supernatant was analyzed using LC/MS-MS to measure parent tembotrione and hydroxy tembotrione metabolites. […]

[2] = tested on: CYP72A219 gene from chromosome 4 (MAKER-25717; SEQ ID NO: 1); assay: tembotrione metabolism in yeast expressing CYP72A219 (a); format: in vitro ADME, Amaranthus palmeri; details: CYP72A219 SEQ ID NO: 1 vector; 150 μL of 1000 μM tembotrione, 24 h, 30 C; FIG. 3C
Description: as §1

[3] = tested on: Palmer amaranth (Amaranthus palmeri); details: in vivo; cited from earlier work
CYP72A219 (a) = tested on: CYP72A219 (a); parameters: species or system Amaranthus palmeri; details: in vivo
Description: (§2) Transcript abundance was measured in the 11 resistant survey populations for genes CYP72A219 (a), CYP81E, and a CYP not implicated in herbicide resistance (FIG. 4B-D). Known sensitive populations HPPD S and HPPD S 12021 were included as references, as was known resistant population HPPD R 12001, the population previously characterized for increased expression of CYP72A219 (a) and CYP81E. Relative transcript abundance was quantified using qRT-PCR on cDNA synthesized from RNA extracted from individuals before and 6 h after tembotrione treatment, using normalization genes as previously described.

CYP81E = tested on: CYP81E; parameters: species or system Amaranthus palmeri; details: in vivo
Description: as §2

[4] = tested on: a CYP not implicated in herbicide resistance; parameters: species or system Amaranthus palmeri; details: in vivo
Description: as §2

Palmer amaranth = assay: tembotrione dose response (plant survival) of Palmer amaranth survey populations; format: in vivo, Amaranthus palmeri; details: eleven survey populations; FIG. 4A
Description: A survey of Palmer amaranth in the US was conducted to identify additional populations resistant to the HPPD inhibiting herbicide tembotrione. A tembotrione dose response was conducted to compare the response of the survey populations to a known sensitive population. The population USA 12001 (the population used for all previous work to identify CYP450 genes) was used as a known resistant reference.

[5] = tested on: yeast lines WAT11 and WAT21; assay: tembotrione metabolism in yeast with empty pYES2 vector (negative control); format: in vitro ADME; details: 150 μL of 1000 μM tembotrione, 24 h, 30 C, FIG. 3A
Description: as §1

[6] = tested on: variant allele of this CYP72A219 gene (SEQ ID NO: 3); assay: tembotrione metabolism in yeast expressing variant allele of CYP72A219 (a); format: in vitro ADME, Amaranthus palmeri; details: variant allele SEQ ID NO: 3 vector; 150 μL of 1000 μM tembotrione, 24 h, 30 C
Description: as §1

[7] = tested on: CYP72A219 gene from chromosome 16 (SEQ ID NO: 7); assay: tembotrione metabolism in yeast expressing CYP72A219 (c); format: in vitro ADME, Amaranthus palmeri; details: SEQ ID NO: 7 vector; 150 μL of 1000 μM tembotrione, 24 h, 30 C; FIG. 3D-E
Description: as §1

[8] = tested on: CYP72A219 (a), CYP72A219 (b), CYP72A219 (c) and CYP81E genes; parameters: species or system Amaranthus palmeri; details: in vivo
[9] = tested on: CYP81E gene (SEQ ID NO: 9); assay: tembotrione metabolism in yeast expressing CYP81E; format: in vitro ADME, Amaranthus palmeri; details: CYP81E SEQ ID NO: 9 vector; 150 μL of 1000 μM tembotrione, 24 h, 30 C; FIG. 3F
Description: as §1

[10] = tested on: CYP81E and CYP72A219 genes; parameters: species or system Amaranthus palmeri; details: in vivo

## CS(=O)(=O)c1ccc(C(=O)C2C(=O)CCCC2=O)c(Cl)c1COCC(F)(F)F [tembotrione, 2-[2-chloro-4-(methylsulfonyl)-3-[(2,2,2,-tri-fluoroethoxy)methyl]benzoyl]-1,3-cyclo-hexanedione]
[1]
  formation of hydroxy-tembotrione: did not show formation of hydroxy-tembotrione
[2]
  formation of hydroxy-tembotrione metabolite: showed formation of the hydroxy-tembotrione metabolite; also recorded: produced the same hydroxy-tembotrione metabolite as produced in planta
[3]
  detoxification to 4-hydroxy tembotrione metabolite followed by glycosylation: rapidly detoxify
  formation of 4-hydroxy tembotrione metabolites in NES: at a slower rate than in NER
  rate of hydroxylation, NER compared with NES: more rapidly in NER
CYP72A219 (a)
  CYP72A219 (a) expression following tembotrione treatment: increased CYP72A219 (a) expression
CYP81E
  CYP81E expression constitutively or after tembotrione treatment: No resistant populations from the survey had increased expression of CYP81E
[4]
  expression of CYP unrelated to herbicide resistance before or after tembotrione treatment: had not increased expression in any populations
Palmer amaranth
  LD50 (dose of tembotrione required to cause 50% mortality in the population) relative to reference sensitive population: significantly higher LD50
[5]
  parent tembotrione and hydroxy tembotrione metabolites in supernatant (LC/MS-MS): only intact tembotrione and no metabolites; also recorded: did not detoxify tembotrione
[6]
  formation of hydroxy-tembotrione metabolite: also showed formation of the hydroxy-tembotrione metabolite
[7]
  formation of hydroxy-tembotrione: did not show formation of hydroxy-tembotrione
[8]
  expression of all four cytochrome P450 genes following tembotrione treatment: induced
[9]
  formation of hydroxy-tembotrione: did not show formation of hydroxy-tembotrione
[10]
  expression of both genes after treatment with tembotrione (qRT-PCR): high expression of both genes
